Reference: PubChem BioAssay AID206 (DTP/NCI, 2004)
Where “and” joins values, the source holds several entries; their conditions need not be identical. Identical values can stand only once. Results filed as inconclusive are left out.

System: nude mice, HT29 intrarenal xenograft, tumor weight T/C
Assay: NCI In Vivo Anticancer Drug Screen. Data for tumor model HT29;CX-1 Human Adenocarcinoma (MER+) (intrarenal inoculation) in NU/NU Swiss (nude) mice
Settings: endpoint: mean tumor weight change, higher = larger tumour
Method in brief: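 Tumor-bearing mice received test compound or vehicle, and tumor size or survival was recorded. Values are the treated-group measurement divided by the vehicle-treated control measurement.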

[1] = dose: 18.75 mg/kg/injection, schedule: Q04DX004 (sc), vehicle: saline
[2] = dose: 200.0 mg/kg/injection, schedule: Q04DX004 (sc), vehicle: saline
[3] = dose: 400.0 mg/kg/injection, schedule: Q04DX004 (sc), vehicle: saline
[4] = dose: 100.0 mg/kg/injection, schedule: Q01DX010 (sc), vehicle: Klucel (hydroxypropylcellulose) (HPC)
[5] = dose: 100.0 mg/kg/injection, schedule: Q01DX010 (sc), vehicle: saline
[6] = dose: 150.0 mg/kg/injection, schedule: Q04DX004 (sc), vehicle: saline with Tween-80
[7] = dose: 300.0 mg/kg/injection, schedule: Q04DX004 (sc), vehicle: saline with Tween-80
[8] = dose: 1200.0 mg/kg/injection, schedule: Q04DX004 (sc), vehicle: saline with Tween-80
[9] = dose: 25.0 mg/kg/injection, schedule: Q01DX010 (sc), vehicle: saline
[10] = dose: 12.5 mg/kg/injection, schedule: Q01DX010 (sc), vehicle: saline
[11] = dose: 600.0 mg/kg/injection, schedule: Q04DX004 (sc), vehicle: saline with Tween-80

`C[C@@](O)(/C=C/[C@H]1CC=CC(=O)O1)[C@@H](C[C@@H](O)\C=C/C=C\C=C\CO)OP(=O)(O)O` was tested, and the T/C (dose: 9.38 mg/kg/injection, schedule: Q04DX004 (sc), vehicle: saline) was 76 % of control, the T/C [1] was 102 % of control and the T/C (dose: 37.5 mg/kg/injection, schedule: Q04DX004 (sc), vehicle: saline) was 72 % of control.

In the case of `CCOC(=O)C(N)C[S][Sn]([CH3])([CH3])[Cl]` (stereo not given), the T/C [1] is reported as 169 % of control and the T/C (dose: 75.0 mg/kg/injection, schedule: Q04DX004 (sc), vehicle: saline) is reported as 72 % of control.

`OCC12COCN1COC2` was tested, and the T/C (dose: 150.0 mg/kg/injection, schedule: Q04DX004 (sc), vehicle: saline) was 88 % of control, the T/C (dose: 300.0 mg/kg/injection, schedule: Q04DX004 (sc), vehicle: saline) was 76 % of control and the T/C (dose: 600.0 mg/kg/injection, schedule: Q04DX004 (sc), vehicle: saline) was 94 % of control. For the same compound, the T/C (dose: 1200.0 mg/kg/injection, schedule: Q04DX004 (sc), vehicle: saline) was 90 % of control.

For `NCCc1cc(O)c(O)c(O)c1`, the T/C [2] was 92 % of control, the T/C [3] was 120 % of control and the T/C (dose: 800.0 mg/kg/injection, schedule: Q04DX004 (sc), vehicle: saline) was 101 % of control. The T/C (dose: 1600.0 mg/kg/injection, schedule: Q04DX004 (sc), vehicle: saline) was 61 % of control.

`O.O.[NH-]C1CCCCC1[NH-].[Pt+2]` (stereo not given) was tested, and the T/C (dose: 10.0 mg/kg/injection, schedule: Q01DX010 (sc), vehicle: saline) was 74 % of control and the T/C (dose: 20.0 mg/kg/injection, schedule: Q01DX010 (sc), vehicle: saline) was 54 % of control.

For `O=C1NC2(CCCCC2)C(=O)N1CCN(CCCl)CCCl`, the T/C (dose: 6.0 mg/kg/injection, schedule: Q01DX010 (sc), vehicle: saline) was 64 % of control, the T/C (dose: 24.0 mg/kg/injection, schedule: Q01DX010 (sc), vehicle: saline) was 21 % of control and 23 % of control and the T/C (dose: 48.0 mg/kg/injection, schedule: Q01DX010 (sc), vehicle: saline) was 23 % of control.

In the case of `c1cc[c]([Sn][c]2ccccc2)cc1`, the T/C (dose: 80.0 mg/kg/injection, schedule: Q01DX010 (sc), vehicle: saline) is reported as 88 % of control, the T/C (dose: 160.0 mg/kg/injection, schedule: Q01DX010 (sc), vehicle: saline) is reported as 113 % of control and the T/C (dose: 320.0 mg/kg/injection, schedule: Q01DX010 (sc), vehicle: saline) is reported as 122 % of control.

`CCCCc1ccc(-n2c(C)c(COC(=O)NC)c(COC(=O)NC)c2C)cc1` was tested, and the T/C (dose: 50.0 mg/kg/injection, schedule: Q01DX010 (sc), vehicle: Klucel (hydroxypropylcellulose) (HPC)) was 218 % of control, the T/C (dose: 50.0 mg/kg/injection, schedule: Q04DX004 (sc), vehicle: Klucel (hydroxypropylcellulose) (HPC)) was 53 % of control and the T/C [4] was 89 % of control. For the same compound, the T/C (dose: 100.0 mg/kg/injection, schedule: Q04DX004 (sc), vehicle: Klucel (hydroxypropylcellulose) (HPC)) was 53 % of control, the T/C (dose: 200.0 mg/kg/injection, schedule: Q04DX004 (sc), vehicle: Klucel (hydroxypropylcellulose) (HPC)) was 73 % of control and the T/C (dose: 400.0 mg/kg/injection, schedule: Q04DX004 (sc), vehicle: Klucel (hydroxypropylcellulose) (HPC)) was 49 % of control.

For `COC12C(COC(N)=O)C3=C(C(=O)C(C)=C(N)C3=O)N1CC1C2N1C` (stereo not given), the T/C (dose: 2.0 mg/kg/injection, schedule: Q01DX010 (sc), vehicle: saline) was 114 % of control and the T/C (dose: 4.0 mg/kg/injection, schedule: Q01DX010 (sc), vehicle: saline) was 8 % of control and 12 % of control.

For `CCN(CC)CCNc1ccc(C)c2sc3ccccc3c(=O)c12`, the T/C [5] was 87 % of control.

`NC(C/[N+]([O-])=N/O)C(=O)O` (stereo not given) was tested, and the T/C (dose: 50.0 mg/kg/injection, schedule: Q01DX010 (sc), vehicle: saline) was 186 % of control and the T/C [5] was 53 % of control.

`CCC1=C2C(=O)c3ccccc3C2=C(C)S(=O)(=O)O1` was tested, and the T/C [6] was 70 % of control, the T/C [7] was 50 % of control and the T/C [8] was 89 % of control.

For `C=CC(=O)NCNC(=O)C=C`, the T/C [9] was 217 % of control and 220 % of control and the T/C [5] was 213 % of control.

In the case of `CCNC(=O)[B-][N+](C)(C)C`, the T/C (dose: 100.0 mg/kg/injection, schedule: Q04DX004 (sc), vehicle: saline) is reported as 94 % of control, the T/C [2] is reported as 60 % of control and the T/C [3] is reported as 43 % of control.

With `NC(CCl)=NCC12CC3CC(CC(C3)C1)C2` the T/C (dose: 37.5 mg/kg/injection, schedule: Q04DX004 (sc), vehicle: Klucel (hydroxypropylcellulose) (HPC)) was 97 % of control and the T/C (dose: 75.0 mg/kg/injection, schedule: Q04DX004 (sc), vehicle: Klucel (hydroxypropylcellulose) (HPC)) was 114 % of control.

With `CSC(SC)=C1C(=O)NC(=O)NC1=O` the T/C (dose: 18.7 mg/kg/injection, schedule: Q04DX004 (sc), vehicle: suspension in saline) was 66 % of control, the T/C (dose: 37.5 mg/kg/injection, schedule: Q04DX004 (sc), vehicle: suspension in saline) was 77 % of control and the T/C (dose: 75.0 mg/kg/injection, schedule: Q04DX004 (sc), vehicle: suspension in saline) was 49 % of control. The T/C (dose: 150.0 mg/kg/injection, schedule: Q04DX004 (sc), vehicle: suspension in saline) was 56 % of control and the T/C (dose: 600.0 mg/kg/injection, schedule: Q04DX004 (sc), vehicle: suspension in saline) was 97 % of control.

In the case of `CC1(C)OCC(CO)(Nc2nc(N3CC3)nc(N3CC3)n2)CO1`, the T/C (dose: 2.0 mg/kg/injection, schedule: Q04DX004 (sc), vehicle: saline) is reported as 76 % of control.

`CC(=O)Oc1c[nH]c(=O)[nH]c1=O` was tested, and the T/C (dose: 100.0 mg/kg/injection, schedule: Q04DX004 (sc), vehicle: distilled water + Tween-80) was 122 % of control, the T/C (dose: 200.0 mg/kg/injection, schedule: Q04DX004 (sc), vehicle: distilled water + Tween-80) was 117 % of control and the T/C (dose: 400.0 mg/kg/injection, schedule: Q04DX004 (sc), vehicle: distilled water + Tween-80) was 107 % of control. The T/C (dose: 800.0 mg/kg/injection, schedule: Q04DX004 (sc), vehicle: distilled water + Tween-80) was 93 % of control.

With `CCCCNC(C)[C@]1(O)Cc2c(O)c3c(c(O)c2[C@@H](OC2CC(N)C(O)C(C)O2)C1)C(=O)c1c(OC)cccc1C3=O` (stereo not given in full) the T/C (dose: 3.12 mg/kg/injection, schedule: Q01DX010 (sc), vehicle: saline) was 179 % of control, the T/C [10] was 103 % of control and the T/C [9] was 94 % of control.

For `C[C@H](N)C(=O)N[C@@H]1[C@H]2C(=C(O)C[C@@H](O)[C@@H]2O)C(=O)O[C@]1(C)C(Cl)Cl`, the T/C (dose: 1.5 mg/kg/injection, schedule: Q04DX004 (sc), vehicle: Klucel (hydroxypropylcellulose) (HPC)) was 33 % of control.

With `CC(=O)ON(C(C)=O)c1ccc(C(N)=O)cc1` the T/C (dose: 75.0 mg/kg/injection, schedule: Q04DX004 (sc), vehicle: saline with Tween-80) was 83 % of control, the T/C [6] was 77 % of control and the T/C [7] was 60 % of control. The T/C [11] was 71 % of control and 78 % of control, the T/C [8] was 103 % of control and the T/C (dose: 2400.0 mg/kg/injection, schedule: Q04DX004 (sc), vehicle: saline with Tween-80) was 61 % of control.

With `CCN(CC)Cc1cc2[nH]c3c4ccc(Cl)cc4ncc3c2cc1OC` the T/C (dose: 37.5 mg/kg/injection, schedule: Q04DX004 (sc), vehicle: saline with Tween-80) was 187 % of control, the T/C [6] was 161 % of control and the T/C [7] was 94 % of control.

For `CCN1/C(=C/C=C/C=C\C=C\c2sc3ccc4ccccc4c3[n+]2CC)Sc2ccc3ccccc3c21`, the T/C (dose: 25.0 mg/kg/injection, schedule: Q04DX004 (sc), vehicle: saline with Tween-80) was 85 % of control, the T/C (dose: 50.0 mg/kg/injection, schedule: Q04DX004 (sc), vehicle: saline with Tween-80) was 54 % of control and the T/C (dose: 100.0 mg/kg/injection, schedule: Q04DX004 (sc), vehicle: saline with Tween-80) was 123 % of control. The T/C (dose: 200.0 mg/kg/injection, schedule: Q04DX004 (sc), vehicle: saline with Tween-80) was 107 % of control.

In the case of `C1CN(P2(N3CC3)=NP(N3CC3)(N3CC3)=NP(N3CC3)(N3CC3)=N2)CCO1` (stereo not given), the T/C (dose: 6.25 mg/kg/injection, schedule: Q01DX010 (sc), vehicle: saline) is reported as 50 % of control, the T/C [10] is reported as 52 % of control and the T/C [9] is reported as 27 % of control.

With `O=C1NCC(Br)C(=O)N1` (stereo not given) the T/C [6] was 68 % of control, the T/C [7] was 50 % of control and the T/C [11] was 60 % of control.

For `COC1C(O)CC(OC2CC(OC3CC(O[C@@H]4C(=O)c5c(cc6cc(OC7CC(OC8CC(O)C(O)C(C)O8)C(O)C(C)O7)c(C)c(O)c6c5O)C[C@H]4[C@H](OC)C(=O)[C@@H](O)[C@@H](C)O)OC(C)C3O)OC(C)C2O)OC1C` (stereo not given in full), the T/C (dose: 0.75 mg/kg/injection, schedule: Q01DX010 (sc), vehicle: saline) was 27 % of control and 50 % of control and the T/C (dose: 1.5 mg/kg/injection, schedule: Q01DX010 (sc), vehicle: saline) was 29 % of control and 41 % of control.

`ClCCCCCCCCCCc1ccccc1` was tested, and the T/C [4] was 23 % of control, the T/C (dose: 200.0 mg/kg/injection, schedule: Q01DX010 (sc), vehicle: Klucel (hydroxypropylcellulose) (HPC)) was 36 % of control and the T/C (dose: 400.0 mg/kg/injection, schedule: Q01DX010 (sc), vehicle: Klucel (hydroxypropylcellulose) (HPC)) was 57 % of control.
